The results in this text go back to ChEMBL document CHEMBL5226373, “Dichapetalins from the Twigs of Dichapetalum longipetalum with Cytotoxic Activities” (J Nat Prod, 2023).

For orientation: IC50 means the concentration needed to halve the response being measured.

What all share (type): functional, cell-based
One assay relates to HL-60. Description: Cytotoxicity against human HL-60 cells assessed as inhibition of cell growth by CCK-8 assay. In general terms: Formazan colour is commonly taken as a measure of viable cells.
The next assay has as its system A549. Briefly: Cytotoxicity against human A549 cells assessed as inhibition of cell growth by CCK-8 assay.
For a further assay, the system named is MIA PaCa-2. Description: Cytotoxicity against human MIA PaCa-2 cells assessed as inhibition of cell growth by CCK-8 assay.
The next assay deals with SU.86.86. Description: Cytotoxicity against human SU-86-86 cells assessed as inhibition of cell growth by CCK-8 assay.
For a further assay, the system named is YAPC. Description: Cytotoxicity against human YAPC cells assessed as inhibition of cell growth by CCK-8 assay.

Structures can show the parent of a compound that is named as a salt.

Consider `C/C(=C\[C@@H]1OC(=O)[C@](O)([C@@H]2CC[C@]34C[C@]23C=C[C@@H]2[C@@]3(C)CC=C(/C=C/c5ccccc5)C(C)(C)[C@@H]3C[C@@H](O)[C@]24C)[C@H]1O)CO`, for which the results for the IC50 with HL-60, in the assay with A549 and with MIA PaCa-2 were 1000 nM, 3800 nM and 960 nM, respectively.

As to `C/C(=C\[C@@H]1C[C@@](O)([C@@H]2CC[C@]34C[C@]23C=C[C@@H]2[C@@]3(C)CC=C(/C=C/c5ccccc5)C(C)(C)[C@@H]3CC(=O)[C@]24C)C(=O)O1)CO`, the values for the IC50 with HL-60, in the assay with A549 and with MIA PaCa-2 were 1700 nM, 2200 nM and 770 nM, respectively.

Consider `COc1ccc([C@@H]2C=C3[C@H](C[C@]4(C)[C@H]5C=C[C@]67C[C@]6(CC[C@H]7[C@H]6CO[C@@H](/C=C(\C)CO)[C@@H]6O)[C@]5(C)[C@H](O)C[C@H]4C3(C)C)OO2)cc1`, for which the IC50 in the assay with HL-60 and with A549 was greater than 10000 nM in each case.

Consider `C/C(=C\[C@H]1C[C@@](O)([C@@H]2CC[C@]34C[C@]23CC[C@@H]2[C@@]3(C)Cc5oc(-c6ccccc6)cc5C(C)(C)[C@@H]3C[C@H](O)[C@]24C)C(=O)O1)CO`, for which the IC50 with HL-60 and in the assay on A549 was greater than 10000 nM each time.

For `C/C(=C\[C@H]1C[C@@H]([C@@H]2CC[C@]34C[C@]23C=C[C@@H]2[C@@]3(C)CC=C(/C=C/c5ccccc5)C(C)(C)[C@@H]3C[C@@H](O)[C@]24C)C(=O)O1)CO`, the IC50 with HL-60 was found to be 350 nM; in the assay on A549, 2800 nM; in the assay on MIA PaCa-2, 670 nM; in the assay on SU.86.86, 1600 nM; with YAPC it was 6700 nM.

For `C/C(=C\[C@H]1C[C@@](O)([C@@H]2CC[C@]34C[C@]23C=C[C@@H]2[C@@]3(C)CC=C(/C=C\c5ccccc5)C(C)(C)[C@@H]3CC(=O)[C@]24C)C(=O)O1)CO`, the IC50 in the assay with HL-60 is 1300 nM; in the assay with A549, 3700 nM; in the assay on MIA PaCa-2, 2800 nM.

Take `C/C(=C\[C@@H]1OC(=O)[C@H]([C@@H]2CC[C@]34C[C@]23C=C[C@@H]2[C@@]3(C)CC(=O)/C(=C\C(=O)c5ccccc5)C(C)(C)[C@@H]3C[C@H](O)[C@]24C)[C@H]1O)CO`: the IC50 with HL-60 and with A549 was greater than 10000 nM in each case.

Take `C/C(=C\[C@@H]1OC(=O)[C@H]([C@@H]2CC[C@]34C[C@]23C=C[C@@H]2[C@@]3(C)CC=C(/C=C/c5ccccc5)C(C)(C)[C@@H]3C[C@H](O)[C@]24C)[C@H]1O)CO`: the IC50 worked out at 280 nM with HL-60, 1800 nM in the assay on A549 and 930 nM in the assay on MIA PaCa-2.

`COc1ccc([C@H]2C=C3[C@@H](C[C@]4(C)[C@H]5C=C[C@]67C[C@]6(CC[C@H]7[C@H]6CO[C@@H](/C=C(\C)CO)[C@@H]6O)[C@]5(C)[C@H](O)C[C@H]4C3(C)C)OO2)cc1`: the IC50 in the assay with HL-60 and in the assay on A549 was greater than 10000 nM in each case.

For `C/C(=C\[C@H]1C[C@@](O)([C@@H]2CC[C@]34C[C@]23C=C[C@@H]2[C@@]3(C)CC(=O)/C(=C\C(=O)c5ccccc5)C(C)(C)[C@@H]3C[C@@H](O)[C@]24C)C(=O)O1)CO`, the figures for the IC50 in the assay with HL-60 and in the assay with A549 were greater than 10000 nM and 9400 nM, respectively.

With `COc1ccc(C(=O)[C@@H]2O[C@]23C(=O)C[C@]2(C)[C@H]4C=C[C@]56C[C@]5(CC[C@H]6[C@H]5C(=O)O[C@@H](/C=C(\C)CO)[C@@H]5O)[C@]4(C)[C@H](O)C[C@H]2C3(C)C)cc1`, the IC50 with HL-60 and in the assay with A549 was greater than 10000 nM throughout.

As to `CC(=O)O[C@@]1(C)CO[C@@]2(C1)OC(=O)[C@H]([C@@H]1CC[C@]34C[C@]13C=C[C@@H]1[C@@]3(C)CC=C5C[C@@H](c6ccccc6)OC[C@]5(C)[C@@H]3C[C@H](O)[C@]14C)[C@H]2O`, the IC50 in the assay with HL-60 was greater than 10000 nM; with A549, 3300 nM.

For the molecule `C/C(=C\[C@@H]1OC(=O)[C@H]([C@@H]2CC[C@]34C[C@]23C=C[C@@H]2[C@@]3(C)CC=C(/C=C\c5ccccc5)C(C)(C)[C@@H]3C[C@@H](O)[C@]24C)[C@H]1O)CO`, the IC50 with HL-60 is 3300 nM; with A549, 9200 nM; in the assay on MIA PaCa-2, greater than 10000 nM.

In the case of `C/C(=C\[C@H]1C[C@@](O)([C@@H]2CC[C@]34C[C@]23C=C[C@@H]2[C@@]3(C)CC=C5C[C@@H](c6ccccc6)OC[C@]5(C)[C@@H]3C[C@@H](O)[C@]24C)C(=O)O1)CO`, the IC50 in the assay on HL-60 is greater than 10000 nM; in the assay with A549, 1100 nM.

For the molecule `COc1ccc(/C=C/C2=CC[C@]3(C)[C@H]4C=C[C@]56C[C@]5(CC[C@H]6[C@H]5C(=O)O[C@@H](/C=C(\C)CO)[C@@H]5O)[C@]4(C)[C@H](O)C[C@H]3C2(C)C)cc1`, the IC50 in the assay with HL-60 is 360 nM; in the assay on A549 it was 1200 nM; with MIA PaCa-2, 390 nM; with SU.86.86 it was 1700 nM; with YAPC, greater than 10000 nM.

Consider `COc1cccc2c1C(=O)c1c(O)c3c(c(O)c1C2=O)C[C@@](O)(C(=O)CO)C[C@@H]3O[C@H]1C[C@H](N)[C@H](O)[C@H](C)O1` [DOXORUBICIN HYDROCHLORIDE], for which the IC50 in the assay on MIA PaCa-2 was found to be 250 nM; with SU.86.86, 330 nM; with YAPC, 310 nM.
